From patent US10550111B2, “Pyrimidine urea compound containing isoxazolines and use thereof” (SHENYANG SINOCHEM AGROCHEMICALS R&D CO., LTD, priority 2014, dated 2020) come the findings set out here.

Holding throughout (assay type): in vivo
For experiment [1], the system named is broad-leaf weeds and grass weeds. The experiment in a line: General screening of herbicidal activity in greenhouse.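 Also: 0 means no visible effect and 100 means all weeds dead or not emerged.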 Particulars: 1000 g a.i./hm^2. Summed up:
(§1)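 Visual growth inhibition rating (0–100%; 100 = weeds dead or not emerged) after track-sprayer application of compounds formulated as emulsifiable concentrates. Sprays given 24 h post-sowing (pre-emergence) or at 2–3-leaf (grasses) / 2–4-leaf (broad-leaves) stage, greenhouse-grown plants.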

For a further experiment, the system named is Zinnia elegans Jacq. The experiment in a line: Bioassay of herbicidal activity in greenhouse (further screening). Summed up: as §1
In experiment [2] the test system is Setaria glauca (L.) Beauv. The experiment is described as above. Summed up:
as §1

Experiment [3] concerns Abutilon theophrasti Medic. Described as above. An outline of the steps: as §1
In experiment [4] the test system is Echinochloa crus-galli (L.) Beauv. The experiment is described as above. An outline of the steps: as §1

Consider `Cn1c(C(F)(F)F)cc(=O)n(-c2cc(C3=NOC(C)(C(=O)OCC4CCCO4)C3)c(Cl)cc2F)c1=O` (stereo not shown) [Compound 398], for which the “pre-emergence and post-emergence herbicidal activity against broad-leaf weeds and grass weeds” value in experiment [1] is reported as “good”. Moreover, the “Growth inhibition rate, Post-emergence treatment, Zinnia elegans Jacq.” value with Zinnia elegans Jacq. (dose 7.5 g a.i./hm^2) came out at 65%; in the experiment on Zinnia elegans Jacq. (dose 15 g a.i./hm^2) it was 90%; with Zinnia elegans Jacq. (dose 30.0 g a.i./hm^2), 100%; with Zinnia elegans Jacq. (dose 60.0 g a.i./hm^2), 100%; in the experiment with Zinnia elegans Jacq. (dose 120.0 g a.i./hm^2) it was 100%. Moreover, the “Growth inhibition rate, Post-emergence treatment, Setaria glauca (L.) Beauv.” value in experiment [2] (dose 7.5 g a.i./hm^2) was 55%; in experiment [2] (dose 15 g a.i./hm^2) it was 95%; in experiment [2] (dose 30.0 g a.i./hm^2), 100%; in experiment [2] (dose 60.0 g a.i./hm^2), 100%; in experiment [2] (dose 120.0 g a.i./hm^2), 100%. The “Growth inhibition rate, Post-emergence treatment, Abutilon theophrasti Medic.” value in experiment [3] (dose 7.5 g a.i./hm^2) was 98%; in experiment [3] (dose 15 g a.i./hm^2), 98%; in experiment [3] (dose 30.0 g a.i./hm^2), 100%; in experiment [3] (dose 60.0 g a.i./hm^2), 100%; in experiment [3] (dose 120.0 g a.i./hm^2), 100%. Further, the “Growth inhibition rate, Post-emergence treatment, Echinochloa crus-galli (L.) Beauv.” value in experiment [4] (dose 7.5 g a.i./hm^2) is listed as 65%; in experiment [4] (dose 15 g a.i./hm^2), 75%; in experiment [4] (dose 30.0 g a.i./hm^2) it was 95%; in experiment [4] (dose 60.0 g a.i./hm^2), 100%; in experiment [4] (dose 120.0 g a.i./hm^2), 100%.
With `CCCS(=O)(=O)OCC1(C)CC(c2cc(-n3c(=O)cc(C(F)(F)F)n(C)c3=O)c(F)cc2Cl)=NO1` (stereo not shown) [Compound 90], the “pre-emergence and post-emergence herbicidal activity against broad-leaf weeds and grass weeds” value in experiment [1] is on record as “good”. Also, the “Growth inhibition rate, Post-emergence treatment, Zinnia elegans Jacq.” value is given as 98% in the experiment with Zinnia elegans Jacq. (dose 37.5 g a.i./hm^2), 100% in the experiment with Zinnia elegans Jacq. (dose 150 g a.i./hm^2) and 100% with Zinnia elegans Jacq. (dose 600 g a.i./hm^2). Further, the “Growth inhibition rate, Pre-emergence treatment, Zinnia elegans Jacq.” value stood at 5% with Zinnia elegans Jacq. (dose 37.5 g a.i./hm^2), 30% in the experiment with Zinnia elegans Jacq. (dose 150 g a.i./hm^2) and 80% in the experiment with Zinnia elegans Jacq. (dose 600 g a.i./hm^2). For the same molecule, the “Growth inhibition rate, Post-emergence treatment, Setaria glauca (L.) Beauv.” value in experiment [2] (dose 37.5 g a.i./hm^2) was found to be 25%; in experiment [2] (dose 150 g a.i./hm^2), 60%; in experiment [2] (dose 600 g a.i./hm^2), 80%. Further, the “Growth inhibition rate, Pre-emergence treatment, Setaria glauca (L.) Beauv.” value was 5% in experiment [2] (dose 37.5 g a.i./hm^2), 20% in experiment [2] (dose 150 g a.i./hm^2) and 50% in experiment [2] (dose 600 g a.i./hm^2). Further, the “Growth inhibition rate, Post-emergence treatment, Abutilon theophrasti Medic.” value in experiment [3] (dose 37.5 g a.i./hm^2), in experiment [3] (dose 150 g a.i./hm^2) and in experiment [3] (dose 600 g a.i./hm^2) was 100% throughout. Moreover, the “Growth inhibition rate, Pre-emergence treatment, Abutilon theophrasti Medic.” value in experiment [3] (dose 37.5 g a.i./hm^2) is recorded as 0%; in experiment [3] (dose 150 g a.i./hm^2), 10%; in experiment [3] (dose 600 g a.i./hm^2), 30%. The entries for the “Growth inhibition rate, Post-emergence treatment, Echinochloa crus-galli (L.) Beauv.” value in experiment [4] (dose 37.5 g a.i./hm^2), in experiment [4] (dose 150 g a.i./hm^2) and in experiment [4] (dose 600 g a.i./hm^2) were 15%, 35% and 40%, respectively. The “Growth inhibition rate, Pre-emergence treatment, Echinochloa crus-galli (L.) Beauv.” value in experiment [4] (dose 37.5 g a.i./hm^2) is 0%; in experiment [4] (dose 150 g a.i./hm^2) it was 10%; in experiment [4] (dose 600 g a.i./hm^2), 25%.
Turning to `CCOCCOC(=O)C1(C)CC(c2cc(-n3c(=O)cc(C(F)(F)F)n(C)c3=O)c(F)cc2Cl)=NO1` (stereo not shown) [Compound 15], in experiment [1], the “pre-emergence and post-emergence herbicidal activity against broad-leaf weeds and grass weeds” value is “good”. The “Growth inhibition rate, Post-emergence treatment, Zinnia elegans Jacq.” value in the experiment with Zinnia elegans Jacq. (dose 7.5 g a.i./hm^2), in the experiment with Zinnia elegans Jacq. (dose 15 g a.i./hm^2), in the experiment on Zinnia elegans Jacq. (dose 30.0 g a.i./hm^2), in the experiment on Zinnia elegans Jacq. (dose 60.0 g a.i./hm^2) and in the experiment on Zinnia elegans Jacq. (dose 120.0 g a.i./hm^2) was 100% each time. The “Growth inhibition rate, Post-emergence treatment, Setaria glauca (L.) Beauv.” value was determined as 75% in experiment [2] (dose 7.5 g a.i./hm^2); 98% in experiment [2] (dose 15 g a.i./hm^2); 100% in experiment [2] (dose 30.0 g a.i./hm^2); 100% in experiment [2] (dose 60.0 g a.i./hm^2); 100% in experiment [2] (dose 120.0 g a.i./hm^2). The “Growth inhibition rate, Post-emergence treatment, Abutilon theophrasti Medic.” value in experiment [3] (dose 7.5 g a.i./hm^2) came to 65%; in experiment [3] (dose 15 g a.i./hm^2) it was 100%; in experiment [3] (dose 30.0 g a.i./hm^2) it was 100%; in experiment [3] (dose 60.0 g a.i./hm^2) it was 100%; in experiment [3] (dose 120.0 g a.i./hm^2), 100%. Also, the “Growth inhibition rate, Post-emergence treatment, Echinochloa crus-galli (L.) Beauv.” value in experiment [4] (dose 7.5 g a.i./hm^2) is 70%; in experiment [4] (dose 15 g a.i./hm^2) it was 85%; in experiment [4] (dose 30.0 g a.i./hm^2) it was 100%; in experiment [4] (dose 60.0 g a.i./hm^2), 100%; in experiment [4] (dose 120.0 g a.i./hm^2), 100%.
Consider `COC(=O)C1(C)CC(c2cc(-n3c(=O)cc(C(F)(F)F)n(C)c3=O)c(F)cc2Cl)=NO1` (stereo not shown) [Compound 5], for which, in experiment [1], the “pre-emergence and post-emergence herbicidal activity against broad-leaf weeds and grass weeds” value is “good”. Also, the “Growth inhibition rate, Post-emergence treatment, Zinnia elegans Jacq.” value was 40% in the experiment with Zinnia elegans Jacq. (dose 7.5 g a.i./hm^2); 45% in the experiment with Zinnia elegans Jacq. (dose 15 g a.i./hm^2); 98% with Zinnia elegans Jacq. (dose 30.0 g a.i./hm^2); 100% in the experiment with Zinnia elegans Jacq. (dose 60.0 g a.i./hm^2); 100% with Zinnia elegans Jacq. (dose 120.0 g a.i./hm^2). For the same molecule, the “Growth inhibition rate, Post-emergence treatment, Setaria glauca (L.) Beauv.” value in experiment [2] (dose 7.5 g a.i./hm^2) was found to be 60%; in experiment [2] (dose 15 g a.i./hm^2) it was 65%; in experiment [2] (dose 30.0 g a.i./hm^2) it was 100%; in experiment [2] (dose 60.0 g a.i./hm^2), 100%; in experiment [2] (dose 120.0 g a.i./hm^2), 100%. Further, the “Growth inhibition rate, Post-emergence treatment, Abutilon theophrasti Medic.” value in experiment [3] (dose 7.5 g a.i./hm^2), in experiment [3] (dose 15 g a.i./hm^2), in experiment [3] (dose 30.0 g a.i./hm^2), in experiment [3] (dose 60.0 g a.i./hm^2) and in experiment [3] (dose 120.0 g a.i./hm^2) was 100% throughout. For the same molecule, the “Growth inhibition rate, Post-emergence treatment, Echinochloa crus-galli (L.) Beauv.” value in experiment [4] (dose 7.5 g a.i./hm^2) is listed as 45%; in experiment [4] (dose 15 g a.i./hm^2), 95%; in experiment [4] (dose 30.0 g a.i./hm^2) it was 100%; in experiment [4] (dose 60.0 g a.i./hm^2), 100%; in experiment [4] (dose 120.0 g a.i./hm^2), 100%.
